# Literature values in patent US9028802B2, “Method of differentially diagnosing different types of dementia” (Koninklijke Philips Electronics N.V., priority 2007, dated 2015).
# Molecular target: T1, Dopamine Transporter (DAT) (Homo sapiens, UniProt Q01959)
# T1 construct: those areas of the brain in which Dopamine Transporters (DAT) are localized, such as the nigrostriatum; from tissue; host or cells: brain (nigrostriatum) of the living subject, in vivo SPECT
# Conditions: SPECT tracer, time point x2 after administration; 'typically'
# T1 sequence (Q01959 whole entry): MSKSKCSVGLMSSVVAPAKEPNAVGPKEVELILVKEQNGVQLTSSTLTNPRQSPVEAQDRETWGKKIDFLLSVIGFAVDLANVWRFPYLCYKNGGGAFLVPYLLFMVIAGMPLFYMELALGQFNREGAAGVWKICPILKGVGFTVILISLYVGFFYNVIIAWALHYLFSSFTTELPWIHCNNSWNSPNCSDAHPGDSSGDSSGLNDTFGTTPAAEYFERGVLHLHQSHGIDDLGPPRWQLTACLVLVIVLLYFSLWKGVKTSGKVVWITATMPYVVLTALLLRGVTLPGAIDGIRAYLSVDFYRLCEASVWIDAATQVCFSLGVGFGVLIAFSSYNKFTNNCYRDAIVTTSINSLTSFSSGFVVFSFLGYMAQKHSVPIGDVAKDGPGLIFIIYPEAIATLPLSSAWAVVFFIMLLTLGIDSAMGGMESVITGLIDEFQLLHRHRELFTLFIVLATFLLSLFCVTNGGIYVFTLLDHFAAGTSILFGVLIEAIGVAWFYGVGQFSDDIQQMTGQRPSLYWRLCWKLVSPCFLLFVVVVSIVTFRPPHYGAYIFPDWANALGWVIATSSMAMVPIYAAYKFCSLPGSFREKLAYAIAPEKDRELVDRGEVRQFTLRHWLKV
compound,measurement,value
COC(=O)C1C2CCC(C[C@@H]1c1ccc(I)cc1)N2CCCF (stereo partly shown) [Datscan],time period after which association with Dopamine Transporters is observed,three to four
